Patent publication US20230114728A1 (Venatorx Pharmaceuticals, Inc., priority 2019, published 2023)
Values after ≈ are worked out from the molar mass of the structure shown.

Experiments:
Assay in all cases: Broth microdilution MIC in CAMHB
Assay type in all cases: cell-based
A. baumannii ATCC 19606 = conditions: Acinetobacter baumannii, ATCC19606; MHB; read-out: Minimum Inhibitory Concentration, A. baumannii ATCC 19606
Outline: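 Hyper-permeable or efflux-deficient strains serve to probe outer-membrane penetration. Growth inhibition is scored visually after 16-20 h at 37° C in CAMHB, starting from 2-8×10^5 CFU/mL.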

E. coli 901C = conditions: Escherichia coli; E. coli 901C (hyper-permeable); MHB; read-out: Minimum Inhibitory Concentration, E. coli 901C
Outline: (§1)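 MIC, read by eye, is the lowest compound concentration giving no bacterial growth after 16-20 h at 37° C. Test compounds are serially diluted 2-fold in CAMHB and seeded with 2-8×10^5 CFU/mL of bacteria taken from a 3-5 h shaking culture, following CLSI methods.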

E. coli AG100A = conditions: Escherichia coli, read-out: Minimum Inhibitory Concentration, E. coli AG100A
Outline: as §1

E. coli AG100 = conditions: Escherichia coli; E. coli AG100 (wild-type parent); MHB; read-out: Minimum Inhibitory Concentration, E. coli AG100
Outline: as §1

E. coli ATCC 25922 = conditions: Escherichia coli, ATCC25922; E. coli ATCC 25922; MHB; read-out: Minimum Inhibitory Concentration, E. coli 25922
Outline: as §1

E. coli D22 = conditions: Escherichia coli; E. coli D22 (hyper-permeable); MHB; read-out: Minimum Inhibitory Concentration, E. coli D22
Outline: as §1

[1] = tested on: K. pneumoniae 848844 producing SHV-11 and KPC-2; conditions: Klebsiella pneumoniae, read-out: Minimum Inhibitory Concentration, K. pneumoniae 848844
Outline: as §1

[2] = tested on: K. pneumoniae SI-117 producing VIM-1; conditions: Klebsiella pneumoniae, read-out: Minimum Inhibitory Concentration, K. pneumoniae SI-117
Outline: as §1

[3] = tested on: K. pneumoniae UMM producing SHV-5 and KPC-2; conditions: Klebsiella pneumoniae, read-out: Minimum Inhibitory Concentration, K. pneumoniae UMM
Outline: as §1

[4] = tested on: P. aeruginosa (ΔmexAB-oprM); conditions: Pseudomonas aeruginosa, read-out: Minimum Inhibitory Concentration, P. aeruginosa ΔmexAB-OprM
Outline: as §1

P. aeruginosa ATCC 27853 = conditions: Pseudomonas aeruginosa, ATCC27853; MHB; read-out: Minimum Inhibitory Concentration, P. aeruginosa ATCC 27853
Outline: as §1

P. aeruginosa ATCC 35151 = conditions: Pseudomonas aeruginosa, ATCC35151; MHB; hyper-permeable strain; read-out: Minimum Inhibitory Concentration, P. aeruginosa ATCC 35151
Outline: as §1

| SMILES | MIC (A. baumannii ATCC 19606) | MIC (E. coli 901C) | MIC (E. coli AG100A) | MIC (E. coli AG100) | MIC (E. coli ATCC 25922) | MIC (E. coli D22) | MIC [1] | MIC [2] | MIC [3] | MIC [4] | MIC (P. aeruginosa ATCC 27853) | MIC (P. aeruginosa ATCC 35151) |
| --- | --- | --- | --- | --- | --- | --- | --- | --- | --- | --- | --- | --- |
| O=C(O)c1cccc2c1OB(O)[C@@H](NC(=O)C(NC(=O)N1CCN(CCF)C(=O)C1=O)c1c(F)cc(O)cc1F)C2 (mixture of isomers) [Example 119, (3R)-3-(2-(2,6-difluoro-4-hydroxyphenyl)-2-(4-(2-fluoroethyl)-2,3-dioxopiperazine-1-carboxamido)acetamido)-2-hydroxy-3,4-dihydro-2H-benzo[e][1,2]oxaborinine-8-carboxylic acid] | > 128 µg/mL | < 0.25 µg/mL | 0.5 to 1 µg/mL (≈ 0.865 to 1.73 µM) | 8 to 16 µg/mL (≈ 13.8 to 27.7 µM) | 8 to 16 µg/mL (≈ 13.8 to 27.7 µM) | 0.5 to 1 µg/mL (≈ 0.865 to 1.73 µM) | 32 to 64 µg/mL (≈ 55.3 to 111 µM) | 32 to 64 µg/mL (≈ 55.3 to 111 µM) | 8 to 16 µg/mL (≈ 13.8 to 27.7 µM) | 8 to 16 µg/mL (≈ 13.8 to 27.7 µM) | > 128 µg/mL | 2 to 4 µg/mL (≈ 3.46 to 6.92 µM) |
| NCCN1CCN(C(=O)N[C@H](C(=O)N[C@H]2Cc3cccc(C(=O)O)c3OB2O)c2c(F)cc(O)cc2F)C(=O)C1=O (single isomer, unassigned) [Example 110] | > 128 µg/mL | 8 to 16 µg/mL (≈ 13.9 to 27.8 µM) | 8 to 16 µg/mL (≈ 13.9 to 27.8 µM) | > 128 µg/mL | > 128 µg/mL | 32 to 64 µg/mL (≈ 55.6 to 111 µM) | > 128 µg/mL | > 128 µg/mL | > 128 µg/mL | 32 to 64 µg/mL (≈ 55.6 to 111 µM) | > 128 µg/mL | 8 to 16 µg/mL (≈ 13.9 to 27.8 µM) |
| NCCN1CCN(C(=O)N[C@@H](C(=O)N[C@H]2Cc3cccc(C(=O)O)c3OB2O)c2c(F)cc(O)cc2F)C(=O)C1=O (single isomer, unassigned) [Example 111] | > 128 µg/mL | 0.5 to 1 µg/mL (≈ 0.869 to 1.74 µM) | 0.5 to 1 µg/mL (≈ 0.869 to 1.74 µM) | 8 to 16 µg/mL (≈ 13.9 to 27.8 µM) | 8 to 16 µg/mL (≈ 13.9 to 27.8 µM) | 2 to 4 µg/mL (≈ 3.48 to 6.95 µM) | 8 to 16 µg/mL (≈ 13.9 to 27.8 µM) | 8 to 16 µg/mL (≈ 13.9 to 27.8 µM) | 8 to 16 µg/mL (≈ 13.9 to 27.8 µM) | 8 to 16 µg/mL (≈ 13.9 to 27.8 µM) | > 128 µg/mL | 0.5 to 1 µg/mL (≈ 0.869 to 1.74 µM) |
| NCCN1CCN(C(=O)N[C@@H](C(=O)N[C@H]2Cc3cccc(C(=O)O)c3OB2O)c2cccc(NS(N)(=O)=O)c2)C(=O)C1=O (single isomer, unassigned) [Example 114] | > 128 µg/mL | 2 to 4 µg/mL (≈ 3.24 to 6.48 µM) | 2 to 4 µg/mL (≈ 3.24 to 6.48 µM) | 32 to 64 µg/mL (≈ 51.8 to 104 µM) | 32 to 64 µg/mL (≈ 51.8 to 104 µM) | 8 to 16 µg/mL (≈ 13 to 25.9 µM) | 32 to 64 µg/mL (≈ 51.8 to 104 µM) | 32 to 64 µg/mL (≈ 51.8 to 104 µM) | 32 to 64 µg/mL (≈ 51.8 to 104 µM) | 2 to 4 µg/mL (≈ 3.24 to 6.48 µM) | > 128 µg/mL | 0.5 to 1 µg/mL (≈ 0.81 to 1.62 µM) |
| NCCN1CCN(C(=O)N[C@H](C(=O)N[C@H]2Cc3cccc(C(=O)O)c3OB2O)c2cccc(NS(N)(=O)=O)c2)C(=O)C1=O (single isomer, unassigned) [Example 115] | > 128 µg/mL | 2 to 4 µg/mL (≈ 3.24 to 6.48 µM) | 8 to 16 µg/mL (≈ 13 to 25.9 µM) | > 128 µg/mL | > 128 µg/mL | 8 to 16 µg/mL (≈ 13 to 25.9 µM) | > 128 µg/mL | > 128 µg/mL | > 128 µg/mL | 8 to 16 µg/mL (≈ 13 to 25.9 µM) | > 128 µg/mL | 2 to 4 µg/mL (≈ 3.24 to 6.48 µM) |
| NC1(CN2CCN(C(=O)N[C@@H](C(=O)N[C@H]3Cc4cccc(C(=O)O)c4OB3O)c3c(F)cc(O)cc3F)C(=O)C2=O)CC1 (single isomer, unassigned) [Example 121] | > 128 µg/mL | 0.5 to 1 µg/mL (≈ 0.831 to 1.66 µM) | 2 to 4 µg/mL (≈ 3.33 to 6.65 µM) | 8 to 16 µg/mL (≈ 13.3 to 26.6 µM) | 8 to 16 µg/mL (≈ 13.3 to 26.6 µM) | 2 to 4 µg/mL (≈ 3.33 to 6.65 µM) | 32 to 64 µg/mL (≈ 53.2 to 106 µM) | 32 to 64 µg/mL (≈ 53.2 to 106 µM) | 8 to 16 µg/mL (≈ 13.3 to 26.6 µM) | 8 to 16 µg/mL (≈ 13.3 to 26.6 µM) | > 128 µg/mL | 0.5 to 1 µg/mL (≈ 0.831 to 1.66 µM) |
| NC1(CN2CCN(C(=O)N[C@H](C(=O)N[C@H]3Cc4cccc(C(=O)O)c4OB3O)c3c(F)cc(O)cc3F)C(=O)C2=O)CC1 (single isomer, unassigned) [Example 122] | > 128 µg/mL | 2 to 4 µg/mL (≈ 3.33 to 6.65 µM) | 8 to 16 µg/mL (≈ 13.3 to 26.6 µM) | 32 to 64 µg/mL (≈ 53.2 to 106 µM) | 32 to 64 µg/mL (≈ 53.2 to 106 µM) | 8 to 16 µg/mL (≈ 13.3 to 26.6 µM) | > 128 µg/mL | 32 to 64 µg/mL (≈ 53.2 to 106 µM) | 32 to 64 µg/mL (≈ 53.2 to 106 µM) | 32 to 64 µg/mL (≈ 53.2 to 106 µM) | > 128 µg/mL | 2 to 4 µg/mL (≈ 3.33 to 6.65 µM) |
| CCN1CCN(C(=O)N[C@H](C(=O)N[C@H]2Cc3cccc(C(=O)O)c3OB2O)c2ccc(C(=O)O)cc2)C(=O)C1=O (single isomer, unassigned) [Example 123] | > 128 µg/mL | < 0.25 µg/mL | 8 to 16 µg/mL (≈ 14.5 to 29 µM) | 32 to 64 µg/mL (≈ 57.9 to 116 µM) | > 128 µg/mL | 2 to 4 µg/mL (≈ 3.62 to 7.24 µM) | > 128 µg/mL | > 128 µg/mL | > 128 µg/mL | 8 to 16 µg/mL (≈ 14.5 to 29 µM) | > 128 µg/mL | 0.5 to 1 µg/mL (≈ 0.905 to 1.81 µM) |
| CCN1CCN(C(=O)N[C@@H](C(=O)N[C@H]2Cc3cccc(C(=O)O)c3OB2O)c2ccc(C(=O)O)cc2)C(=O)C1=O (single isomer, unassigned) [Example 124] | > 128 µg/mL | < 0.25 µg/mL | 2 to 4 µg/mL (≈ 3.62 to 7.24 µM) | 8 to 16 µg/mL (≈ 14.5 to 29 µM) | 32 to 64 µg/mL (≈ 57.9 to 116 µM) | 2 to 4 µg/mL (≈ 3.62 to 7.24 µM) | > 128 µg/mL | > 128 µg/mL | 32 to 64 µg/mL (≈ 57.9 to 116 µM) | 2 to 4 µg/mL (≈ 3.62 to 7.24 µM) | 32 to 64 µg/mL (≈ 57.9 to 116 µM) | < 0.25 µg/mL |
| O=C(O)c1cccc2c1OB(O)[C@@H](NC(=O)[C@H](NC(=O)N1CCN(CCF)C(=O)C1=O)c1c(F)cc(O)cc1F)C2 (single isomer, unassigned) [Example 126] | > 128 µg/mL | < 0.25 µg/mL |  | 8 to 16 µg/mL (≈ 13.8 to 27.7 µM) | 8 to 16 µg/mL (≈ 13.8 to 27.7 µM) | 0.5 to 1 µg/mL (≈ 0.865 to 1.73 µM) | 32 to 64 µg/mL (≈ 55.3 to 111 µM) | 8 to 16 µg/mL (≈ 13.8 to 27.7 µM) | 8 to 16 µg/mL (≈ 13.8 to 27.7 µM) | 8 to 16 µg/mL (≈ 13.8 to 27.7 µM) | > 128 µg/mL | 2 to 4 µg/mL (≈ 3.46 to 6.92 µM) |
| CCN1CCN(C(=O)N[C@@H](C(=O)N[C@H]2Cc3cccc(C(=O)O)c3OB2O)c2ccc(C(=O)O)c(Cl)c2)C(=O)C1=O (single isomer, unassigned) [Example 154] | 32 to 64 µg/mL (≈ 54.5 to 109 µM) | < 0.25 µg/mL | 8 to 16 µg/mL (≈ 13.6 to 27.3 µM) | 32 to 64 µg/mL (≈ 54.5 to 109 µM) | 32 to 64 µg/mL (≈ 54.5 to 109 µM) | 2 to 4 µg/mL (≈ 3.41 to 6.82 µM) | > 128 µg/mL |  | 32 to 64 µg/mL (≈ 54.5 to 109 µM) | 8 to 16 µg/mL (≈ 13.6 to 27.3 µM) | > 128 µg/mL | < 0.25 µg/mL |
| CCN1CCN(C(=O)NC(C(=O)N[C@H]2Cc3cccc(C(=O)O)c3OB2O)c2c(F)cc(O)cc2F)C(=O)C1=O (stereo partly drawn) [Example 105, (3R)-3-(2-(2,6-difluoro-4-hydroxyphenyl)-2-(4-ethyl-2,3-dioxopiperazine-1-carboxamido)acetamido)-2-hydroxy-3,4-dihydro-2H-benzo[e][1,2]oxaborinine-8-carboxylic acid] |  | < 0.25 µg/mL | 0.5 to 1 µg/mL (≈ 0.892 to 1.78 µM) | 8 to 16 µg/mL (≈ 14.3 to 28.6 µM) | 8 to 16 µg/mL (≈ 14.3 to 28.6 µM) | 0.5 to 1 µg/mL (≈ 0.892 to 1.78 µM) | 32 to 64 µg/mL (≈ 57.1 to 114 µM) | 32 to 64 µg/mL (≈ 57.1 to 114 µM) | 8 to 16 µg/mL (≈ 14.3 to 28.6 µM) |  |  |  |
